The record followed here is patent US12084473B2, “β-D-2′-deoxy-2′-α-fluoro-2′-β-C-substituted-2-modified-N6-substituted purine nucleotides for HCV treatment” (Atea Pharmaceuticals, Inc., priority 2015, dated 2024).

The nature of series [1]: Stability in fresh human whole blood. Type of series: in vitro ADME. To be noted: 10 μM, up to 120 min, FIG. 5. As to the method: The stability of selected compounds in fresh human whole blood and in human liver S9 fraction was determined in incubations containing 10 μM test compound. After incubations of 0, 30, 60 min, and up to 120 min, aliquots were removed and immediately extracted with 3 volumes of ice-cold methanol/acetonitrile (1:1, v/v). Extracts were centrifuged and supernatants were analyzed by LC-MS/MS for concentrations of unchanged test compound and potential metabolites.

Series [2] concerns micro-patterned human hepatocyte co-cultures. As to the kind of experiment: Human Hepatocyte Co-Cultures (HepatoPac): cytotoxicity and hepatocyte health. It is filed as cell-based. To be noted: for IC50: Homo sapiens, Hepatocyte. The procedure: Cytotoxicity and hepatocyte health were assessed in triplicate by measuring ALT leakage, urea production, albumin secretion and cellular ATP contents in micro-patterned human hepatocyte co-cultures (HepatoPac®, Hepregen Corporation) prepared by seeding cryopreserved human hepatocytes (single donor) and 3T3 J2 mouse fibroblasts in microtiter plates according to procedures established by Hepregen. Culture media was replaced with fresh media containing TA, test article, (0, 1, 10 or 30 μM) every 2 or 3 days through day 16. […] Cellular ATP levels were measured on days 9 and 21. ATP signals in stromal-only control cultures (murine 3T3 fibroblasts) were subtracted from those of human HepatoPac co-cultures to obtain hepatocyte-specific effects. See, Table 4, 5 and 6 below.

A further series has as its system other RNA or DNA viruses. As to the kind of experiment: Activity against other RNA or DNA viruses. To be noted: at concentrations up to 100 μM. It is filed as cell-based.
The nature of series [3]: Human Bone Marrow Progenitor Cell Assay. Type of series: cell-based. To be noted: human, fresh human bone marrow progenitor cells; read-out: CC50 in human bone marrow stem cells. The procedure: Fresh human bone marrow progenitor cells (Invitrogen) suspended in either BFU-E or GM-CSF-specific culture medium were added, at 10^5 cells/well, to triplicate serial dilutions of TA in 6-well plates. After 14-day incubations, colony counts were used to determine CC50 values. BFU-E colonies were confirmed using the benzidene technique.

The target of the next series is T1, human DNA polymerase β (Homo sapiens, UniProt P06746).
T1 construct: purchased CHIMERx
Put plainly: Human DNA Polymerase Assays. It is filed as biochemical. To be noted: at concentrations up to 100 μM. The procedure:
(§1) Inhibition of human DNA polymerases α, β and γ (CHIMERx) was determined in triplicate in reaction mixtures of serially diluted TA, 0.05 mM dCTP, dTTP, and dATP, 10 μCi [^32P]-α-dGTP (800 Ci/mmol), 20 μg activated calf thymus DNA and additional reagents specific for each polymerase.

The target of the next series is T2, human DNA polymerase γ (Homo sapiens, UniProt P54098).
T2 construct: purchased CHIMERx
T2 sequence (P54098 1-1239): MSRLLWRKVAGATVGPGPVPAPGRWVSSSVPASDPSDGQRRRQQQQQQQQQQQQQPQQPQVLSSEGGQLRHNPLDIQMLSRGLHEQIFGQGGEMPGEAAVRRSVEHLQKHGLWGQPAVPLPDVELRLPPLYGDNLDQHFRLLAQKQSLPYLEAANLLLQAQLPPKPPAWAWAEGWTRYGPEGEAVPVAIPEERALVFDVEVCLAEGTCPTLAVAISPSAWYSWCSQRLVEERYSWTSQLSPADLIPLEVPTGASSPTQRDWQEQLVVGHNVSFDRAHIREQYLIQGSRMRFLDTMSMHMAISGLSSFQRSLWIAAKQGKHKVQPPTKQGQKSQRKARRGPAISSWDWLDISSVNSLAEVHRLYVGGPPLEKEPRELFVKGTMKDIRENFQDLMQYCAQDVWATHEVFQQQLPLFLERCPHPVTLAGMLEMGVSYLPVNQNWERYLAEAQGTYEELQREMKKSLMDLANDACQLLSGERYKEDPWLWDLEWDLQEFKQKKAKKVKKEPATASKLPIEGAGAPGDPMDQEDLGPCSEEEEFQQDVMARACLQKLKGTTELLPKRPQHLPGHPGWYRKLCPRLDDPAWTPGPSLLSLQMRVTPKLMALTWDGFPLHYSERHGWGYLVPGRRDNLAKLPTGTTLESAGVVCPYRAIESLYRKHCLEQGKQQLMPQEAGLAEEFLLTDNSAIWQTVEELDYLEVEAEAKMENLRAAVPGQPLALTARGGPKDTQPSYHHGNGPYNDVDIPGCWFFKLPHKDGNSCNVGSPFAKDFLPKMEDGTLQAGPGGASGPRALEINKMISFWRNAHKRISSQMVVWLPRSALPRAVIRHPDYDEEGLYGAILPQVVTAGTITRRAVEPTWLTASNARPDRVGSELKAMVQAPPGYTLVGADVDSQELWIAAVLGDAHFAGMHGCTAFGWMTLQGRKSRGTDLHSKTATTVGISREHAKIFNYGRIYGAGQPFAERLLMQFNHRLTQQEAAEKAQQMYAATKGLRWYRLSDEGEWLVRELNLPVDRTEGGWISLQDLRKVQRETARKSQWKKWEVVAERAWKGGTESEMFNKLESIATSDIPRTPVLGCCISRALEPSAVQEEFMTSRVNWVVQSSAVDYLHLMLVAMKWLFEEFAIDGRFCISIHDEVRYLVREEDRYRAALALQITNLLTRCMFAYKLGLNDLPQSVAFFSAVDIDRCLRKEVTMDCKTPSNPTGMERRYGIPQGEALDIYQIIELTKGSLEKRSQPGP
Put plainly: Human DNA Polymerase Assays. Type of series: biochemical. To be noted: at concentrations up to 100 μM. As to the method:
as §1

Structures are written as SMILES. Like-named read-outs stand apart in the source and are kept apart here.

`CNc1nc(N)nc2c1ncn2[C@@H]1OC(CO[P@@](=O)(N[C@@H](C)C(=O)OC(C)C)Oc2ccccc2)[C@@H](O)[C@@]1(C)F` (stereo partly drawn) [Compound 5-2]: the “stability in human blood” value in series [1] is given as “excellent stability”. Moreover, the IC50 was above 30 µM in series [2] (48 h, Table 5, Day 2, read-out: Effect on Albumin Secretion, 50% Inhibitory Concentration (IC50)); above 30 µM in series [2] (48 h, Table 6, Day 2, read-out: Effect on Albumin Secretion, 50% Inhibitory Concentration (IC50)); above 30 µM in series [2] (120 h, Table 5, Day 5, read-out: Effect on Albumin Secretion, 50% Inhibitory Concentration (IC50)); above 30 µM in series [2] (120 h, Table 6, Day 5, read-out: Effect on Albumin Secretion, 50% Inhibitory Concentration (IC50)); above 30 µM in series [2] (168 h, Table 5, Day 7, read-out: Effect on Albumin Secretion, 50% Inhibitory Concentration (IC50)); above 30 µM in series [2] (168 h, Table 6, Day 7, read-out: Effect on Albumin Secretion, 50% Inhibitory Concentration (IC50)). Moreover, the IC50 in series [2] (216 h, Day 9, read-out: Effect on Cellular ATP Concentrations, 50% Inhibitory Concentration (IC50)) is above 30 µM; in series [2] (216 h, Table 5, Day 9, read-out: Effect on Albumin Secretion, 50% Inhibitory Concentration (IC50)) it was above 30 µM; in series [2] (216 h, Table 6, Day 9, read-out: Effect on Albumin Secretion, 50% Inhibitory Concentration (IC50)) it was above 30 µM; in series [2] (288 h, Table 6, Day 12, read-out: Effect on Albumin Secretion, 50% Inhibitory Concentration (IC50)), above 30 µM; in series [2] (384 h, Table 6, Day 16, read-out: Effect on Albumin Secretion, 50% Inhibitory Concentration (IC50)) it was 24.2 µM; in series [2] (504 h, Day 21, read-out: Effect on Cellular ATP Concentrations, 50% Inhibitory Concentration (IC50)), 12.8 µM. For the same compound, the IC50 in series [2] (504 h, Table 6, Day 21, read-out: Effect on Albumin Secretion, 50% Inhibitory Concentration (IC50)) turned out to be 14.5 µM. For the same compound, the “signs of cytotoxicity by ALT leakage, albumin secretion, urea production and cellular ATP content” value in series [2] (concentrations up to 30 μM, up to 12 days) is reported as “no signs of cytotoxicity”. Besides, the “cytotoxicity with extended exposure” value in series [2] (up to 21 days of culture) is listed as “minor indications of cytotoxicity”.

In the case of `CC(C)OC(=O)[C@H](C)N[P@](=O)(OCC1O[C@@H](n2cnc3c(N(C)C)nc(N)nc32)[C@](C)(F)[C@@H]1O)Oc1ccccc1` (stereo partly drawn) [Compound 25, isopropyl ((((S)-(2R,3R,4R,5R)-5-(2-amino-6-(dimethylamino)-9H-purin-9-yl)-4-fluoro-3-hydroxy-4-methyltetrahydrofuran-2-yl)methoxy)-phenoxy-phosphoryl)-L-alaninate], the “activity against other RNA or DNA viruses” value in the series on other RNA or DNA viruses is listed as “no activity”. In addition, the CC50 at 14 day in series [3] was above 100 µM. Moreover, the “inhibition of human DNA polymerase β” value against human DNA polymerase β is “No inhibition”. The “inhibition of human DNA polymerase γ” value against human DNA polymerase γ is “No inhibition”.

`CC(C)OC(=O)[C@H](C)N[P@](=O)(OCC1O[C@@H](n2cnc3c(N(C)C4CC4)nc(N)nc32)[C@](C)(F)[C@@H]1O)Oc1ccccc1` (stereo partly drawn) [Compound 27, isopropyl ((((S)-(2R,3R,4R,5R)-5-(2-amino-6-(methylcyclopropanamino)-9H-purin-9-yl)-4-fluoro-3-hydroxy-4-methyltetrahydrofuran-2-yl)methoxy)-phenoxy-phosphoryl)-L-alaninate]: the “activity against other RNA or DNA viruses” value with other RNA or DNA viruses is “no activity”. For the same compound, in series [3], the CC50 at 14 day was above 100 µM. Besides, the “inhibition of human DNA polymerase β” value at human DNA polymerase β is “No inhibition”. Also, the “inhibition of human DNA polymerase γ” value on human DNA polymerase γ was “No inhibition”.

As a reminder, the CC50 is the concentration giving 50% cytotoxicity.
